Measurements published in ChEMBL document CHEMBL4507296 (2021).

Tests used:
[1] = biological target: Transient receptor potential cation channel subfamily M member 8 (Homo sapiens, UniProt Q7Z2W7); assay: Assay (coming soon)
[2] = biological target: 5-hydroxytryptamine receptor 1A (Homo sapiens) (UniProt P08908); conditions: Compound concentration 10.0 uM
[3] = biological target: 5-hydroxytryptamine receptor 1B (Homo sapiens) (UniProt P28222); conditions: Compound concentration 10.0 uM
[4] = biological target: 5-hydroxytryptamine receptor 2A (Homo sapiens) (UniProt P28223); conditions: Compound concentration 10.0 uM
[5] = biological target: 5-hydroxytryptamine receptor 2B (Homo sapiens) (UniProt P41595); conditions: Compound concentration 10.0 uM
[6] = biological target: 5-hydroxytryptamine receptor 2C (Homo sapiens) (UniProt P28335); conditions: Compound concentration 10.0 uM
[7] = biological target: 5-hydroxytryptamine receptor 3A (Homo sapiens) (UniProt P46098); conditions: Compound concentration 10.0 uM
[8] = biological target: 5-hydroxytryptamine receptor 5A (Homo sapiens) (UniProt P47898); conditions: Compound concentration 10.0 uM
[9] = biological target: 5-hydroxytryptamine receptor 6 (Homo sapiens) (UniProt P50406); conditions: Compound concentration 10.0 uM
[10] = biological target: 5-hydroxytryptamine receptor 7 (Homo sapiens) (UniProt P34969); conditions: Compound concentration 10.0 uM
[11] = biological target: D(2) dopamine receptor (Homo sapiens) (UniProt P14416); conditions: Compound concentration 10.0 uM
[12] = biological target: D(4) dopamine receptor (Homo sapiens) (UniProt P21917); conditions: Compound concentration 10.0 uM
[13] = biological target: D(1B) dopamine receptor (Homo sapiens) (UniProt P21918); conditions: Compound concentration 10.0 uM
[14] = biological target: Sodium-dependent serotonin transporter (Homo sapiens) (UniProt P31645); conditions: Compound concentration 10.0 uM
[15] = biological target: Sodium-dependent noradrenaline transporter (Homo sapiens) (UniProt P23975); conditions: Compound concentration 10.0 uM
[16] = biological target: Mu-type opioid receptor (Homo sapiens) (UniProt P35372); conditions: Compound concentration 10.0 uM
[17] = biological target: Delta-type opioid receptor (Homo sapiens) (UniProt P41143); conditions: Compound concentration 10.0 uM
[18] = biological target: Kappa-type opioid receptor (Homo sapiens) (UniProt P41145); conditions: Compound concentration 10.0 uM
[19] = biological target: T1, GABA-A receptor; anion channel (Rattus norvegicus) (UniProt O09028+P15431+P18506+P18508+P19969+P20236+P23574+P23576+P28471+P28473+P30191+P62813+P63079+P63138+Q91ZM7+Q9ES14); conditions: Compound concentration 10.0 uM
[20] = biological target: Histamine H1 receptor (Homo sapiens) (UniProt P35367); conditions: Compound concentration 10.0 uM
[21] = biological target: Histamine H3 receptor (Homo sapiens) (UniProt Q9Y5N1); conditions: Compound concentration 10.0 uM
[22] = biological target: Histamine H4 receptor (Homo sapiens) (UniProt Q9H3N8); conditions: Compound concentration 10.0 uM
[23] = biological target: Alpha-1A adrenergic receptor (Homo sapiens) (UniProt P35348); conditions: Compound concentration 10.0 uM
[24] = biological target: Alpha-1B adrenergic receptor (Homo sapiens) (UniProt P35368); conditions: Compound concentration 10.0 uM
[25] = biological target: T2, Alpha-2B adrenergic receptor (Homo sapiens) (UniProt P18089); conditions: Compound concentration 10.0 uM
T2 sequence (whole entry): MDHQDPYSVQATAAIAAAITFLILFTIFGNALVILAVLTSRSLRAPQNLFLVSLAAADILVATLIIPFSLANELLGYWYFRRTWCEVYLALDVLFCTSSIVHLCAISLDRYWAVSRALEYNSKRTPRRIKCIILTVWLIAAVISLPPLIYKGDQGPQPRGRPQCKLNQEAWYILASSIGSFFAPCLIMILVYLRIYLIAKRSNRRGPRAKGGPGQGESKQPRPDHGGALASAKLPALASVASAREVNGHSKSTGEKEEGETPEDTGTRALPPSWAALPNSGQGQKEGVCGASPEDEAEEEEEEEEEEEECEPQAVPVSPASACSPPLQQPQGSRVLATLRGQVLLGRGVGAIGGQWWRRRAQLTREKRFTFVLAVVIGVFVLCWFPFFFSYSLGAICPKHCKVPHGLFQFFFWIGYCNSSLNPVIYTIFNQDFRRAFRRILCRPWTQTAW

[26] = biological target: Alpha-2C adrenergic receptor (Homo sapiens) (UniProt P18825); conditions: Compound concentration 10.0 uM
[27] = biological target: Beta-1 adrenergic receptor (Homo sapiens) (UniProt P08588); conditions: Compound concentration 10.0 uM
[28] = biological target: Beta-2 adrenergic receptor (Homo sapiens) (UniProt P07550); conditions: Compound concentration 10.0 uM
[29] = biological target: Muscarinic acetylcholine receptor M1 (Homo sapiens) (UniProt P11229); conditions: Compound concentration 10.0 uM
[30] = biological target: Muscarinic acetylcholine receptor M2 (Homo sapiens) (UniProt P08172); conditions: Compound concentration 10.0 uM
[31] = biological target: Muscarinic acetylcholine receptor M3 (Homo sapiens) (UniProt P20309); conditions: Compound concentration 10.0 uM
[32] = biological target: Muscarinic acetylcholine receptor M4 (Homo sapiens) (UniProt P08173); conditions: Compound concentration 10.0 uM
[33] = biological target: Muscarinic acetylcholine receptor M5 (Homo sapiens) (UniProt P08912); conditions: Compound concentration 10.0 uM
[34] = biological target: Beta-3 adrenergic receptor (Homo sapiens) (UniProt P13945); conditions: Compound concentration 10.0 uM
[35] = biological target: T1, GABA-A receptor; anion channel (Rattus norvegicus); conditions: Compound concentration 10.0 uM; remark: listed apart in the source
[36] = organism: Rattus norvegicus; conditions: Compound concentration 10.0 uM
[37] = biological target: Alpha-1D adrenergic receptor (Homo sapiens) (UniProt P25100); conditions: Compound concentration 10.0 uM

Sequence of Alpha-1A adrenergic receptor (Homo sapiens) (P35348 whole entry): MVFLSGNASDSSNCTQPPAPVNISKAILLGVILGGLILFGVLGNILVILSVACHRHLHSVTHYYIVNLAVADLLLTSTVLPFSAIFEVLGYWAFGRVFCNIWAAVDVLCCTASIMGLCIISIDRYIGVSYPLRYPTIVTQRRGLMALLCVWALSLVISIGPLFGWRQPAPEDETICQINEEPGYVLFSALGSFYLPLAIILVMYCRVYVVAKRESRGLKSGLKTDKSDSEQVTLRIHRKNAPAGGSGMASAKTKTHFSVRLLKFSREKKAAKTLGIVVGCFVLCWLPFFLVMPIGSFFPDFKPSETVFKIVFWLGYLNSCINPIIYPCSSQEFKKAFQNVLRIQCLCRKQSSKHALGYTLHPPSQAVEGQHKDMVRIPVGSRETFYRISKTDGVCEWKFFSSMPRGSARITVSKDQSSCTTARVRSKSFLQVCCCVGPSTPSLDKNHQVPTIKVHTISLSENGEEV
Sequence of Beta-1 adrenergic receptor (Homo sapiens) (P08588 whole entry, looked up): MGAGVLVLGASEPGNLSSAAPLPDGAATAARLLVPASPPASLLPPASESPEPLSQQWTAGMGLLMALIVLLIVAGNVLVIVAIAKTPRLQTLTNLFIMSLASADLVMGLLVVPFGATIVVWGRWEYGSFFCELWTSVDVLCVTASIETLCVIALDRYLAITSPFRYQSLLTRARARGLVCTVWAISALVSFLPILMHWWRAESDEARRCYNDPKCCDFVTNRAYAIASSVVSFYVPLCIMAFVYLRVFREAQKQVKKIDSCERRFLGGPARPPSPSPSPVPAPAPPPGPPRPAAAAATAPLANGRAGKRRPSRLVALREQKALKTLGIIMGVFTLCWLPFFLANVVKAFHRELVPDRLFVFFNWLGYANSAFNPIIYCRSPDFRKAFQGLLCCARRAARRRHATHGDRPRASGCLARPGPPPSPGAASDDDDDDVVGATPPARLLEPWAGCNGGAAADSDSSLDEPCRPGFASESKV
Sequence of Muscarinic acetylcholine receptor M2 (Homo sapiens) (P08172 whole entry): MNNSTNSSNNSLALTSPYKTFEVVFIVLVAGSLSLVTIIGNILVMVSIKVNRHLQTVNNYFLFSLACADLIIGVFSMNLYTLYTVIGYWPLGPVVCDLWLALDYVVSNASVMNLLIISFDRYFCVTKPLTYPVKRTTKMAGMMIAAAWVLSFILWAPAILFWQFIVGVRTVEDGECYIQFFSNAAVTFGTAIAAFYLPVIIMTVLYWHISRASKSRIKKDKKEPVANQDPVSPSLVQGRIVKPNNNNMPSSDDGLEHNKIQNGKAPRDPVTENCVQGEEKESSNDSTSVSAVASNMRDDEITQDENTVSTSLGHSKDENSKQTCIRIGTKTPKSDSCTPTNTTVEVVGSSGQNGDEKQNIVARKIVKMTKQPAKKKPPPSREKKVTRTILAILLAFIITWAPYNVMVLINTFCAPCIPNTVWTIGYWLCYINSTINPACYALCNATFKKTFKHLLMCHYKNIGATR
Sequence of Muscarinic acetylcholine receptor M5 (Homo sapiens) (P08912 whole entry): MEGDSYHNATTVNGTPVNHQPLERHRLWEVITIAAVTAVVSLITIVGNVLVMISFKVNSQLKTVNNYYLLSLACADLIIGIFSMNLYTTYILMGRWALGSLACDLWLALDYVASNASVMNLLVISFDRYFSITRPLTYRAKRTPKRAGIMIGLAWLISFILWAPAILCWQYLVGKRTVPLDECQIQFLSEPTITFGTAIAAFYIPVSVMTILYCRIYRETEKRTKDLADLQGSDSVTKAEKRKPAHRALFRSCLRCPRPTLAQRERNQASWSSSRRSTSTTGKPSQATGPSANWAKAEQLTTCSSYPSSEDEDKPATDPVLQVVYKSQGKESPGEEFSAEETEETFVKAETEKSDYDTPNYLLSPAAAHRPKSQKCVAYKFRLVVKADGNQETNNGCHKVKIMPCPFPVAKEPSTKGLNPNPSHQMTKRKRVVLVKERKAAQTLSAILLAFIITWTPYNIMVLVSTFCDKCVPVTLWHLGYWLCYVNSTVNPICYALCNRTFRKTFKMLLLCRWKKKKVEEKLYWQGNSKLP
Sequence of 5-hydroxytryptamine receptor 5A (Homo sapiens) (P47898 whole entry): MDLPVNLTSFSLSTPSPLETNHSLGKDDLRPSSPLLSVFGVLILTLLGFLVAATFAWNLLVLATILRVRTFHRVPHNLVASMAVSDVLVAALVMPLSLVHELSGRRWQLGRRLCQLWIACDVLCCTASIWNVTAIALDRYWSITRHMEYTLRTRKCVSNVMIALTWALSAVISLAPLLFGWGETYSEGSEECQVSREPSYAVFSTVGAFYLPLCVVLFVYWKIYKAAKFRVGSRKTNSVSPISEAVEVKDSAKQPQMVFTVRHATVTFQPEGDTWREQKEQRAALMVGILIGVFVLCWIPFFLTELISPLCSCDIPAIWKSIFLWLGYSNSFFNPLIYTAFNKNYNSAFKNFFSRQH
Sequence of Sodium-dependent serotonin transporter (Homo sapiens) (P31645 whole entry, looked up): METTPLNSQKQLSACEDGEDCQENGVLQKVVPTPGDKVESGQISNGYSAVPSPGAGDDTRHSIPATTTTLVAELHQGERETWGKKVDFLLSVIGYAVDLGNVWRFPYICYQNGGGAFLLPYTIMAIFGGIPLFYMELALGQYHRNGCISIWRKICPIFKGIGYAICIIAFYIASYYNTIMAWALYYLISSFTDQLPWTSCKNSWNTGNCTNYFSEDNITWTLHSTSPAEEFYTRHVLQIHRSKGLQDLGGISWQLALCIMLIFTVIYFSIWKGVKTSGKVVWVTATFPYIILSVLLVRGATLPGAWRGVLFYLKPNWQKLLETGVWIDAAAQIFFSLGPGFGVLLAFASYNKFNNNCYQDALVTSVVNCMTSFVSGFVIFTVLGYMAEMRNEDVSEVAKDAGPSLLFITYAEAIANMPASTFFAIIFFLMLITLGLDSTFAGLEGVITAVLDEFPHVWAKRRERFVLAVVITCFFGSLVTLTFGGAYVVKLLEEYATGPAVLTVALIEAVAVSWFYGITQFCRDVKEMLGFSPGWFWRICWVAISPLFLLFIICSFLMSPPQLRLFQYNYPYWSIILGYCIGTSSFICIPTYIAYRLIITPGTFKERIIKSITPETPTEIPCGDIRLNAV
Sequence of Alpha-2C adrenergic receptor (Homo sapiens) (P18825 whole entry): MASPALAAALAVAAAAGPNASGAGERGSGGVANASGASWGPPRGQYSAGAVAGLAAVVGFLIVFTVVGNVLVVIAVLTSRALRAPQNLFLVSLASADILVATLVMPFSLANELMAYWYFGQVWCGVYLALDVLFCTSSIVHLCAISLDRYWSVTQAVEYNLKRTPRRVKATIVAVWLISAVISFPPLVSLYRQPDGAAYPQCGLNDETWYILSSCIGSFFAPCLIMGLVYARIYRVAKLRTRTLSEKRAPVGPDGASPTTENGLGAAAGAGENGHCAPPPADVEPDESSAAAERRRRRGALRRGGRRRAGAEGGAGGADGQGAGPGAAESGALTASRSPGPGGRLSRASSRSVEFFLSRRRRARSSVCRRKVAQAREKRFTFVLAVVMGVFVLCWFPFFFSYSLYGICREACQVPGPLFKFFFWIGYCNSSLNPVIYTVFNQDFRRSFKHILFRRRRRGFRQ
Sequence of Transient receptor potential cation channel subfamily M member 8 (Q7Z2W7 whole entry): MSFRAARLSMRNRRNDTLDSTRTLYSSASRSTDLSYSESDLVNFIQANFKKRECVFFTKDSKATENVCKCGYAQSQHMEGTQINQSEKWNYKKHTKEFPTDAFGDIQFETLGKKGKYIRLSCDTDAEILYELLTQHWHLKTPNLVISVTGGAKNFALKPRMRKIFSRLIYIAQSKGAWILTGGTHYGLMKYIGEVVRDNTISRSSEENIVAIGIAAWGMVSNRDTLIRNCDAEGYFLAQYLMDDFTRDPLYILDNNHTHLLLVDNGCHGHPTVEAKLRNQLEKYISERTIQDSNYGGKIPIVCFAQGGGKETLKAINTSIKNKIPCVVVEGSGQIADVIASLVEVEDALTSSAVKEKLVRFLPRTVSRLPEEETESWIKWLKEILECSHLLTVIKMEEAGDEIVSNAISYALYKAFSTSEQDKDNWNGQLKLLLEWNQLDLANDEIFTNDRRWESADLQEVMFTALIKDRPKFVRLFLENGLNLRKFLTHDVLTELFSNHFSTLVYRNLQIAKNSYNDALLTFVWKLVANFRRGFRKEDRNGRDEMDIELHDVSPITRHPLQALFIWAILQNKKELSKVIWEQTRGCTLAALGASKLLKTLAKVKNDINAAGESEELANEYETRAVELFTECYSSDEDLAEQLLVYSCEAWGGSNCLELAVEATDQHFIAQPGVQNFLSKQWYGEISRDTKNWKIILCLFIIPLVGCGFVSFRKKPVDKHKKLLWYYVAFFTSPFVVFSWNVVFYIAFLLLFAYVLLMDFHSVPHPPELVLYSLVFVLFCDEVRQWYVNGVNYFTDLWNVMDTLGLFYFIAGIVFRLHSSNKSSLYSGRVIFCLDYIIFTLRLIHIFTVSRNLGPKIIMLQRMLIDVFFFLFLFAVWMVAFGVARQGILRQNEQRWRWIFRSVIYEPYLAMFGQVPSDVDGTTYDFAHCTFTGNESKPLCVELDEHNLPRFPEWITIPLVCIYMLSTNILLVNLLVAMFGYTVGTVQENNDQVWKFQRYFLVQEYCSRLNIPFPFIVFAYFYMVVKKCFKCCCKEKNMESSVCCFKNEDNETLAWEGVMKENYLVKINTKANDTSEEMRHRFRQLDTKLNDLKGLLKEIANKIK
Sequence of D(1B) dopamine receptor (Homo sapiens) (P21918 whole entry): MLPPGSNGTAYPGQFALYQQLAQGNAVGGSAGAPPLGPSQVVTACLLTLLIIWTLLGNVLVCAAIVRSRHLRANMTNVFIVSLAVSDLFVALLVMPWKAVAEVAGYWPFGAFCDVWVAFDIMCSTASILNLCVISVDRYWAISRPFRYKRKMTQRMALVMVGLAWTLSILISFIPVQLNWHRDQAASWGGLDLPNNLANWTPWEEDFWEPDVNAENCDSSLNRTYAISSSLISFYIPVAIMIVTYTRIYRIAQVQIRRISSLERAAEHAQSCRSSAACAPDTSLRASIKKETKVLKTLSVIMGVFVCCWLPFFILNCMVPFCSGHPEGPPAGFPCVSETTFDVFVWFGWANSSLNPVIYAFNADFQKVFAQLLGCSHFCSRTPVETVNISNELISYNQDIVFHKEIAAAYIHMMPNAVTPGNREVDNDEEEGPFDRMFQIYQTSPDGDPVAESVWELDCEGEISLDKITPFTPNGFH

C[C@H](c1ccc(F)cc1)N(Cc1ccc(Cl)c(C(=O)O)c1)C(=O)c1cnc2ccccc2c1 [PF-05257137]
IC50 [1]: > 10 µM (not active)
inhibition [2]: -3.79%
inhibition [3]: -7.94%
inhibition [4]: -2.34%
inhibition [5]: 21.8%
inhibition [6]: -7.78%
inhibition [7]: 14.3%
inhibition [8]: 1.77%
inhibition [9]: 11.3%
inhibition [10]: 13.8%
inhibition [11]: -0.95%
inhibition [12]: 14.9%
inhibition [13]: 12.8%
inhibition [14]: -2.63%
inhibition [15]: -9.65%
inhibition [16]: 0.07%
inhibition [17]: 12.4%
inhibition [18]: -0.42%
inhibition [19]: -0.14%
inhibition [20]: -3.13%
inhibition [21]: -8.13%
inhibition [22]: 3.41%
inhibition [23]: 11.5%
inhibition [24]: -1.36%
inhibition [25]: 17.7%
inhibition [26]: 14.2%
inhibition [27]: -0.35%
inhibition [28]: 24.1%
inhibition [29]: 14.5%
inhibition [30]: 1.24%
inhibition [31]: 39%
inhibition [32]: 4.42%
inhibition [33]: -1.1%
inhibition [34]: -5.1%
inhibition [35]: 28.3%
inhibition [36]: -9.88%
inhibition [37]: 10.1%
